Experimental data taken from patent publication US6251854A, “N-methyl-d-aspartate receptor channel blockers and method for identifying such” (priority 1999, dated 2001).
Entries after “also recorded” stand apart in the source; their conditions may differ. Counter-ions that a name gives are not always drawn. Like-named read-outs stand apart in the source and are kept apart here. Non-standard residues stand in square brackets, D forms with d. Residues, ends and D or L forms follow the SMILES beside them.

Key:
[1] = biological target: T1, human NR1-NR2A NMDA receptor subunits (Homo sapiens, UniProt Q05586+Q12879); assay: amphibian oocyte current blockade assay (agonist-evoked currents); assay type: cell-based; conditions: for potency rank as NMDA blocker (FIG. 1): unacetylated peptides; for selectivity for NMDA receptor channels: versus non-NMDA glutamate receptors
T1 construct: expressed in transfected cells; host or cells: Xenopus laevis oocytes
Description: Briefly, in the amphibian oocyte current blockade assay, human NMDA receptors are expressed in the oocytes. The receptors are stimulated in the cells by NMDA agonists. Agonist-induced current is the control against which current blockade levels achieved by incubating the oocytes with candidate NMDA blockers are measured.
(A) NMDA specific receptor channel blocking peptides ("NMDA blockers") were identified by screening synthetic combinatorial libraries (SCL) (see e.g., the library and peptide synthesis methods described in Ostresh, et al., Meth Enzymol (1996) 267:220-34, incorporated herein by reference) and assaying for blockade of agonist-evoked currents by the human NR1-NR2A NMDA receptor subunits expressed in amphibian (Xenopus laevis) oocytes (see, for example, the assay method described in Ferrer-Monteil and Montal, METHODS:A Companion to Methods in Enzymology (1994) 6:60-68, incorporated herein by reference).
(D) The compounds prepared in part (B) above were examined for activity against human brain NMDA receptors (composed of NR1 and NR2A subunits) expressed in oocytes. Ionic currents were activated by 200 μM L-glutamate (L-GIu) 20 μM glycine (Gly), at a holding potential Vh =[…]. Ba^2+ /flufenamic Ringer solution was supplemented with agonist and compounds of the invention, and blockade activity determined for each compound.
An example of how the assay method is performed follows, with reference to FIG. 5.

[2] = biological target: T2, AMPA-receptor subunit GluR1 (Homo sapiens, UniProt P42261); assay: current blockade at non-NMDA glutamate receptor channels in amphibian oocytes; assay type: cell-based
T2 construct: expressed in transfected cells; host or cells: amphibian oocytes
Excerpt: FIG. 1 is a bar graph which depicts the extent of current blockade achieved by various peptides of the invention acting on NMDA receptors ("NMDAR", solid bars) and glutamate receptors of the AMPA-receptor subunit GluR1 type ("GluR1", shaded bars) in amphibian oocytes. Each tested peptide is identified by sequence and test number along the bottom axis of the graph. Current blockade is expressed as a function of the extent of current reduction as compared to current produced in control amphibian oocytes.
(B) To examine the specificity of the blockade activity, the activity of the peptides on glutamate receptor channels of the non-NMDA subtype, specifically, the AMPA-receptor subunit GluR1, was tested.

[3] = system: cultured hippocampal neurons; assay: hippocampal neuronal cell death model (NMDA excitotoxicity); assay type: cell-based, mammalian; conditions: neurons exposed to 200 μM NMDA for 20 minutes (FIG. 3)
Excerpt: In addition to approved clinical trials of the inventive compounds in humans, their efficacy can be confirmed in various known animal models for cerebral impairments associated with NMDA receptor pathology, such as the rat ischemia model (e.g., Seif, et al., Eur J Pharmacol (1990) 185:19-24 and Block and Schwara, Neurosci Lett (1996) 208:41-44). Useful in vitro models for testing neuroprotective drug effects in cerebral neuronal cells are also known and include the chick embryo hypoxia model (e.g., Krieglstein, et al., J Pharmacol Meth (1988) 20:39-46) and the mammalian hippocampal neuronal system in which the inventive compounds were tested (e.g., Schinder, et al., supra). These references are each incorporated by reference to illustrate knowledge in the art concerning models of cerebral dysfunction. Those of ordinary skill in the art will be familiar with, or can readily ascertain, other suitable models for use in testing the compounds of the invention.
Testing of the NMDA blockers of the invention in a hippocampal cell model for neurodysfunction (using the method described in Schinder, et al., J Neurosci (1996) 16:6125-33, incorporated herein by reference) yielded surprising results. Specifically, the NMDA blockers of the invention exert a substantial protective effect against cell death induced by exposure of cultured hippocampal neurons to glutamate agonists in the described model of neuronal cell death due to NMDA receptor dysfunction. In this model, neurons exposed to 200 μM NMDA for 20 minutes display extensive death that can be prevented by open channel blockers such as MK-801 or memantine (FIG. 3). This in vitro paradigm of excitotoxicity provides an assay of neuroprotection (see e.g., Schinder et al., supra and Deshpande, et al., Arch Toxicol, 69:384-390).

[4] = Table 2, bicyclic compounds, 200 μM L-glutamate 20 μM glycine, Vh = −80 mV, blocked response 1-(Icmpd/Iagonist), read-out: IC50 (μM) Inhibitory Concentrations

T1 sequence (Q12879 23-1464, other chains not shown): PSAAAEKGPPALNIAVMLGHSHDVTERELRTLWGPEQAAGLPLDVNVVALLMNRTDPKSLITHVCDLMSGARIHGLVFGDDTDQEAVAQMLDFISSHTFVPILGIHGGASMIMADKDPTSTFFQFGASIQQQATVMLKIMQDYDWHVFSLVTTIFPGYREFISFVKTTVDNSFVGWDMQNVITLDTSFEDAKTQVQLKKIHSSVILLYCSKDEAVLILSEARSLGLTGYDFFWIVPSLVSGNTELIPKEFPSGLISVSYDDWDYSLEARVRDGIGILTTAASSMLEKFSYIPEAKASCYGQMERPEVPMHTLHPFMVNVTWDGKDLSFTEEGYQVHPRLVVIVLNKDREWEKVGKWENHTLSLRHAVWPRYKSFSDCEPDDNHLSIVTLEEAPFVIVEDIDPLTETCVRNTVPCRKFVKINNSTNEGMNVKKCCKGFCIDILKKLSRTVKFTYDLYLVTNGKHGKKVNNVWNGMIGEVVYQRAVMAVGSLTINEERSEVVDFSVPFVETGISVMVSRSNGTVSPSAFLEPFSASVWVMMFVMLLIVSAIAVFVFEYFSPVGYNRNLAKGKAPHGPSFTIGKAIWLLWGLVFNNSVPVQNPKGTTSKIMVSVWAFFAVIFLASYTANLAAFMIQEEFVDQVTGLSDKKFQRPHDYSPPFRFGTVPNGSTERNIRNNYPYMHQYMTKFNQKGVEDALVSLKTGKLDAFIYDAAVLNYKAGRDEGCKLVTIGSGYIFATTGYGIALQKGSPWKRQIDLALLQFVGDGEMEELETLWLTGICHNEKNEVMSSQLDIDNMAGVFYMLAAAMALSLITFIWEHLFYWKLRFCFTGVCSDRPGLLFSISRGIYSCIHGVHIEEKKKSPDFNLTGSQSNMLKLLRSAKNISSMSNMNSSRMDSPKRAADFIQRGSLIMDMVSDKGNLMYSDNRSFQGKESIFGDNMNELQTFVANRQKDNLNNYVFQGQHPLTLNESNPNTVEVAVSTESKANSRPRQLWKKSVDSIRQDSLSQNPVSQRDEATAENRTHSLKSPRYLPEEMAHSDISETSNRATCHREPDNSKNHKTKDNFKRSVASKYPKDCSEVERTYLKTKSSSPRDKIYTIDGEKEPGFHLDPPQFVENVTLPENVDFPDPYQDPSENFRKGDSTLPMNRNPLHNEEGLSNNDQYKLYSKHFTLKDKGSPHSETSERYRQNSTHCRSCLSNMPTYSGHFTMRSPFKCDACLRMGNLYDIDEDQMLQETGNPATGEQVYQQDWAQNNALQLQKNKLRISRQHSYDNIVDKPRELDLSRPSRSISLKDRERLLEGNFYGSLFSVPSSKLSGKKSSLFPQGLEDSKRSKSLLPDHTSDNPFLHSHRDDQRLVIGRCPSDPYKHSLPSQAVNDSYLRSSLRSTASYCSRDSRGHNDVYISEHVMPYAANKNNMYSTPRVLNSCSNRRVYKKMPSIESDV
T2 sequence (P42261 19-906): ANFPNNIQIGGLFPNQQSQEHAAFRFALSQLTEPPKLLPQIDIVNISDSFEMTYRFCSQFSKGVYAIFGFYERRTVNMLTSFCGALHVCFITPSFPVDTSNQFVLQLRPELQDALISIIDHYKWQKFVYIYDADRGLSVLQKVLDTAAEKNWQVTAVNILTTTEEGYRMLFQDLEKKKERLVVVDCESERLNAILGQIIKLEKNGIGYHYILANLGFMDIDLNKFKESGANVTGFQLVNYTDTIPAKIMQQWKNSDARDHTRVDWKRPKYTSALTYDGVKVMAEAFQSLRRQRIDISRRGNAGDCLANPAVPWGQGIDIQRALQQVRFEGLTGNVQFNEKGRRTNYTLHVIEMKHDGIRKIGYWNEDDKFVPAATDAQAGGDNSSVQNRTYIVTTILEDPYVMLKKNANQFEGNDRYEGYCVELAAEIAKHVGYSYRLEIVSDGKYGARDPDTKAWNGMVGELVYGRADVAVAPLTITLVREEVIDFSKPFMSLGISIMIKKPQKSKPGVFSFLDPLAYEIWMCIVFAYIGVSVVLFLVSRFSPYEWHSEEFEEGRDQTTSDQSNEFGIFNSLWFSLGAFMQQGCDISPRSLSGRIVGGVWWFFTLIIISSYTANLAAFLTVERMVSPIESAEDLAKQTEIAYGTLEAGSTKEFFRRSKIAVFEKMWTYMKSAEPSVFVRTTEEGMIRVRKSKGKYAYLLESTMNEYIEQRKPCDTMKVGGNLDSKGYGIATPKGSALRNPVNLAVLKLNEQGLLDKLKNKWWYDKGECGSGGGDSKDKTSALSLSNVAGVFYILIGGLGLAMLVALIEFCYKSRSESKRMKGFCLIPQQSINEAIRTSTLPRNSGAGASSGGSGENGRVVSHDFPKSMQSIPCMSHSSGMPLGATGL

Compound: RRRCRW
- potency rank as NMDA blocker (FIG. 1) [1]: most potent

Compound: 2H-3-(4-fluorobenzyl)-7-(but-2-yl)-8-(3-methyl-butyl)diazolidine[1,2-b]dihydroimidazole
- IC50 [1, 4]: 1.2 µM

Compound: RRRRRW
- current blockade at a steady concentration compared with the same concentration of memantine (FIG. 2) [1]: comparable
- effect on evoked inward currents upon perfusion (FIG. 5) ([1]; 200 μM L-glutamate/20 μM glycine): sharply attenuated
- increase of blockade efficacy by a C-terminal tryptophan (Ki RRRRRR vs RRRRRW) ([1]; compared with RRRRRR (#111)): 1000 fold
- potency rank as NMDA blocker (FIG. 1) [1]: most potent
- selectivity for NMDA receptor channels [1]: selective for NMDA receptor channels
- blockade effect on non-NMDA glutamate receptors [2]: no blockade effect
- protection of neurons from excitotoxic cell death [3]: prevented neuronal cell death; also recorded: protected neurons from excitotoxic cell death

Compound: C[C@]12N[C@H](Cc3ccccc31)c1ccccc12 [MK-801, reference compound]
- protection of neurons from excitotoxic cell death [3]: prevented

Compound: CC12CC3CC(C)(C1)CC(N)(C3)C2 [memantine, 1-amino-3,5-dimethyladmantane hydrochloride, reference compound]
- protection of neurons from excitotoxic cell death [3]: prevented

Compound: RRCRWW
- selectivity for NMDA receptor channels [1]: selective for NMDA receptor channels
- blockade effect on non-NMDA glutamate receptors [2]: no blockade effect
- protection of neurons from excitotoxic cell death [3]: prevented neuronal cell death

Compound: CC(C)C[C@@H](NC(=O)[C@@H](Cc1ccc(O)cc1)NC(=O)[C@H](N)CCCNC(=N)N)C(=O)N[C@H](Cc1ccccc1)C(=O)N[C@H](CCCNC(=N)N)C(=O)N[C@H](CCCNC(=N)N)C(N)=O [rylfrr] (H-[dR][dY][dL][dF][dR][dR]-NH2)
- IC50 [1]: 27 ± 4 µM

Compound: 2H-3-(4-fluorobenzyl)-7-(t-butyl)-8-(3-methyl-butyl)diazolidine[1,2-b]dihydroimidazole
- IC50 [1, 4]: 2.2 µM

Compound: 2H-3-(3-guanidinopropyl)-7-(but-2-yl)-8-(3-methyl-butyl)diazolidine[1,2-b]dihydroimidazole
- IC50 [1, 4]: 11.8 µM

Compound: RRRRW
- protection of neurons from excitotoxic cell death [3]: protected neurons from excitotoxic cell death

Compound: 2H-3-(4-fluorobenzyl)-7-(3-guanidinopropyl)-8-(3-methylbutyl)diazolidine[1,2-b]dihydroimidazole
- IC50 [1, 4]: 6.1 µM

Compound: N=C(N)NCCC[C@H](NC(=O)[C@H](CCCNC(=N)N)NC(=O)[C@H](CCCNC(=N)N)NC(=O)[C@H](CCCNC(=N)N)NC(=O)[C@H](CCCNC(=N)N)NC(=O)[C@@H](N)CCCNC(=N)N)C(N)=O [RRRRRR]
- IC50 [1]: 0.5 ± 0.1 µM
- protection of neurons from excitotoxic cell death [3]: protected neurons from excitotoxic cell death

Compound: 2H-3-(3-guanidinopropyl)-7-(3-guanidinopropyl)-8-(3-methylbutyl)diazolidine[1,2-b]dihydroimidazole
- IC50 [1, 4]: 4.2 µM

Compound: RRRCWW
- sensitivity of AMPA receptor channels to the peptides (FIG. 1) ([2]; set result: weakly sensitive): excepting

Compound: H-RRRRWW-NH2 (C-terminus assumed) [RRRRWW]
- IC50 [1]: 0.1 µM
- current blockade at a steady concentration compared with the same concentration of memantine (FIG. 2) [1]: comparable
- potency rank as NMDA blocker (FIG. 1) [1]: most potent
- selectivity for NMDA receptor channels [1]: selective for NMDA receptor channels
- blockade effect on non-NMDA glutamate receptors [2]: no blockade effect
- protection of neurons from excitotoxic cell death [3]: prevented neuronal cell death
